Entries after “also recorded” stand apart in the source; their conditions may differ. Read-outs that look alike come from different tables or passages of the source.
What was measured:
[1] = molecular target: T1, unphosphorylated recombinant human p38α (Homo sapiens, UniProt Q16539); assay: Differential scanning fluorimetry (DSF), binding to p38α
T1 construct: made in house; host or cells: E. coli BL21

[2] = molecular target: ERK2 (Homo sapiens, UniProt P28482); assay: DSF, binding to ERK2
[3] = molecular target: T2, p38β (Homo sapiens, UniProt Q15759); assay: DSF, binding to p38β; conditions: DSF melting temperature, concentration series
T2 construct: HA (N); made in house; host or cells: E. coli BL21
T2 sequence (Q15759 whole entry): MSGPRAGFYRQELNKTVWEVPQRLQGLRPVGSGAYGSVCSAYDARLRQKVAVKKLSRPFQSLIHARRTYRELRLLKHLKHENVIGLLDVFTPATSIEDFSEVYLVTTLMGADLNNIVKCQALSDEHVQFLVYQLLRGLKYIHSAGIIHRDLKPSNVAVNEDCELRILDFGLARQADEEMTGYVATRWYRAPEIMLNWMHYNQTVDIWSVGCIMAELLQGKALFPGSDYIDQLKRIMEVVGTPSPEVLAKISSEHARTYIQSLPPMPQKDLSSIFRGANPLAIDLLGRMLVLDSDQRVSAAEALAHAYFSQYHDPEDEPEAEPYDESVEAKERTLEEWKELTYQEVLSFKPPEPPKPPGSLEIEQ

[4] = molecular target: T3, p38α mutant (R49K/HL107-8TF/K165R) (Homo sapiens, UniProt Q16539, H107T/K165R/L108F/R49K); assay: DSF, binding to target-disrupted p38α mutant; conditions: compared with wild-type p38α
T3 construct: made in house; host or cells: E. coli BL21
T3 sequence (Q16539 whole entry R49K/H107T/L108F/K165R): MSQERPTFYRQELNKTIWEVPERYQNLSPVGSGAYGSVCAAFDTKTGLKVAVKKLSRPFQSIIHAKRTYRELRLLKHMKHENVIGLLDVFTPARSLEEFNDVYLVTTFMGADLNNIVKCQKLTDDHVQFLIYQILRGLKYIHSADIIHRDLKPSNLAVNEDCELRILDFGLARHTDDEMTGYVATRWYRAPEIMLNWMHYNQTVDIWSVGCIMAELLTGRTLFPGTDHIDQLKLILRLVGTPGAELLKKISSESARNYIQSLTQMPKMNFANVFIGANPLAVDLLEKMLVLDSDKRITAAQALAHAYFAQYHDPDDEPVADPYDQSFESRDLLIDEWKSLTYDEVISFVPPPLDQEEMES

[5] = test system: HMVECL monolayers; assay: Endothelial permeability assay (10 kDa dextran flux); format: cell-based, human; conditions: for reduction of TNFα/hyperthermia-induced permeability increase: HMVECL, 10 kDa dextran, TNFα and 39.5° C. for 6 h
Description: Endothelial permeability assay: Permeability of HMVECL monolayers was assessed by measuring transendothelial flux of 10 kDa dextran conjugated to Cascade blue fluorescent dye for 30 min at 37° C. in Matrigel-coated 3 μm pore size Transwell plates.

[6] = test system: IL-8-directed neutrophil TEM through HMVECLs; assay: Neutrophil transendothelial migration (TEM) assay; format: cell-based, human; conditions: HMVECLs preincubated at 39.5° C. for 6 h
[7] = test system: HMVECLs; assay: Cytotoxicity assay (MTS, LDH release); format: cell-based, human; conditions: 100 μM for 48 h
Description: Cytotoxicity of HMVECL exposed to 10-100 μM of each compound is analyzed by MTS assay (Promega), LDH release (Promega), and immunoblotting for activated caspase-3 (Cell Signaling).
Cytotoxicity assay: Cytotoxicity was monitored in parallel HMVEC-L monolayers established in 96-well culture plates using a colorimetric assay that measured reduction of 3-(4,5-dimethylthiazol-2-yl)-5-(3-carboxymethoxyphenyl)-2-(4-sulfophenyl)-2H-tetrazolium (MTS) to a formazan dye (CellTiter 96™; Promega; Madison, WI) according to the manufacturer's protocol and quantifying product formation by measuring absorption at 490 nm.

[8] = test system: LPS-induced cytokine expression in PMA-differentiated THP1 cells; assay: LPS-induced cytokine expression, PCR-based cytokine array; format: cell-based, human; conditions: 25 μM SB203580 or 10, 25, or 100 μM UM101
[9] = test system: p38-dependent phosphorylation of MK2 and Stat-1 in HeLa cells; assay: Inhibition of substrate phosphorylation (immunoblot); format: cell-based, human; conditions: 10 μM SB203580 or 50 μM UM101 for 30 min
Text: Cell extracts prepared in RIPA buffer containing protease and phosphatase inhibitors were resolved by SDS-PAGE, transferred to PVDF membrane, blocked with 5% nonfat dry milk, probed with primary antibodies against phosphorylated MK2 and Stat-1, and total p38α as a loading control. Bands were detected using secondary antibodies conjugated to infrared fluorophores and infrared fluorescence imaging (Odyssey; LICOR).

[10] = molecular target: T4, p38α (Homo sapiens, UniProt Q16539); assay: STD-NMR, binding to p38α; conditions: 200 μM UM101, 5 μM p38 protein
T4 construct: made in house; host or cells: E. coli BL21
T4 sequence (Q16539 whole entry): as the sequence (Q16539 whole entry R49K/H107T/L108F/K165R) above, with K49R, T107H, F108L, R165K counted along it
Description: (§1) Spectra were recorded on an Agilent DD2 500-MHz spectrometer equipped with a 5-mm inverse HFCN probe head at 300 K. During each transient, the protein was saturated with a series of 58 […]-shaped pulses (50 ms, 1 ms delay between pulses) using the vendor-supplied STD-ES pulse sequence, for a total saturation time of 3 seconds. The on-resonance irradiation of protein was done at 0.5 ppm and off-resonance irradiation at 30 ppm. The vendor-supplied WATERGATE pulse sequence was used to suppress the water signal in the STD spectrum. The on-resonance and off-resonance pulse sequences were subtracted internally. A total of 16,384 transients were collected for each STD experiment with a 1 second delay between acquisitions, 6000 Hz spectral width, and 1.3 second acquisition time.

[11] = molecular target: T2, p38β; assay: STD-NMR, binding to p38β; conditions: 200 μM UM101, 5 μM p38 protein
Description: as §1

[12] = molecular target: T5, mutated p38α (Homo sapiens, UniProt Q16539, H107T/K165R/L108F/R49K); assay: STD-NMR, binding to mutated p38α; conditions: 200 μM UM101, 5 μM p38 protein
T5 construct: made in house; host or cells: E. coli BL21
T5 sequence (Q16539 whole entry R49K/H107T/L108F/K165R): as the sequence (Q16539 whole entry R49K/H107T/L108F/K165R) above
Description: as §1

[13] = test system: LPS/hyperthermia-induced ALI in CD1 mice; assay: Mouse i.t. LPS/FRH-induced acute lung injury model; conditions: for reduction of lavage neutrophil content vs. DMSO-treated controls: mouse LPS/hyperthermia ALI, 24 h

T1 sequence (Q16539 whole entry): as the sequence (Q16539 whole entry R49K/H107T/L108F/K165R) above, with K49R, T107H, F108L, R165K counted along it
ERK2, sequence (P28482 whole entry, species assumed): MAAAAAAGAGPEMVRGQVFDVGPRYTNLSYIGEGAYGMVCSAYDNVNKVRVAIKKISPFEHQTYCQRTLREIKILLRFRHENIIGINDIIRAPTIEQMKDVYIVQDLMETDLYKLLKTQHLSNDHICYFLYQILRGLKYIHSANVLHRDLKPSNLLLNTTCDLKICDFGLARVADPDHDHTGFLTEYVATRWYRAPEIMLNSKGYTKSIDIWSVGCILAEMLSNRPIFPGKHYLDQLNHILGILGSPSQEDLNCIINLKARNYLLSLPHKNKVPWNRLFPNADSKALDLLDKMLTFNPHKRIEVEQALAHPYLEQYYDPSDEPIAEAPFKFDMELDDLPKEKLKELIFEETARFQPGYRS

## O=C(Nc1ccc(CN2CCS(=O)(=O)CC2)cc1)c1ccc(Cl)cc1 [UM101, 4-chloro-N-{4-[(1,1-dioxo-1 lambda˜6˜,4-thiazinan-4-yl)methyl]phenyl}benzamide]
[1]; 100 μM, change in melting temperature relative to DMSO control in DSF assay, read-out: p38α ΔTm (° C.) @100 μM
  ΔTm at 100 µM: 0.667 °C
[1]; DSF melting temperature, concentration series
  stabilization of p38α in DSF (binding), in words: concentration-dependent increase in melting temperature of p38α; also recorded: only stabilized p38α
[1]; added at 100 μM, DSF, read-out: increase in melting temperature of p38α
  ΔTm at 100 µM: ~0.7 °C
[2]; 100 μM, change in melting temperature relative to DMSO control in DSF assay
  ΔTm at 100 µM: 0.0175 °C
[2]; DSF, test compounds at 10-100 μM
  stabilization of ERK2 in DSF (binding), in words: not ERK2
[3]
  stabilization of p38β in DSF (binding), in words: not p38β; also recorded: only stabilized p38α
[4]
  binding to p38α mutant with four of ten target pocket amino acids substituted, in words: abrogated UM101 binding; also recorded: no UM101-binding
[5]; 10 μM
  reduction of TNFα/hyperthermia-induced permeability increase: 74%
[5]; 25 μM
  reduction of TNFα/hyperthermia-induced permeability increase: 89%
[5]; 100 μM
  reduction of TNFα/hyperthermia-induced permeability increase: > 100%
[5]; HMVECL barrier assays (FIG. 2a, 2b)
  endothelial barrier stabilization compared with SB203580, in words: more effectively stabilized endothelial barriers than SB203580
[6]; 10 μM
  reduction of hyperthermia-augmented neutrophil TEM: 95%
[6]; 25 μM
  reduction of hyperthermia-augmented neutrophil TEM: less than baseline levels
[6]; 50 μM
  reduction of hyperthermia-augmented neutrophil TEM: less than baseline levels
[7]
  toxicity in LDH release and MTS assays: Neither compound was toxic
[8]
  LPS-stimulated genes of the array (16) whose expression was inhibited, in words: inhibited expression of all SB203580-inhibited genes except TNFSF9
[9]
  anisomycin-stimulated phosphorylation of MK2, in words: partial inhibition of MK2 phosphorylation
  anisomycin-stimulated phosphorylation of Stat-1, in words: reduced
[9]; listed as UM1010
  anisomycin-stimulated phosphorylation of MK2, in words: reduced
[10]
  interaction with p38α in STD-NMR, in words: confirmed specific UM101 binding to p38α; also recorded: protons in both aromatic rings of UM101 interact with p38α
[11]
  interaction with p38β in STD-NMR, in words: much weaker
[12]
  interaction with mutated p38α in STD-NMR, in words: much weaker
[13]; 100 μg i.p.
  reduction of lavage neutrophil content vs. DMSO-treated controls: 44.4%
[13]; 300 μg i.p.
  reduction of lavage neutrophil content vs. DMSO-treated controls: 49.5%
[13]; 500 μg i.p.
  reduction of lavage neutrophil content vs. DMSO-treated controls: 55.3%
[13]; 1000 μg i.p.
  reduction of lavage neutrophil content vs. DMSO-treated controls: 54%
[13]; mouse LPS/FRH-induced ALI
  tolerability and potency compared with SB203580 in experimental ALI, in words: well tolerated and more potent than SB203580 in mitigating experimental ALI; also recorded: more potent than SB203580 in reducing neutrophil and protein accumulation in BAL
[13]; single i.p. injection of 100-1000 μg UM101, 1000 μg UM60 or 1000 μg SB203580, 30 min before i.t. 50 μg LPS and hyperthermia
  mice that died within 24 h: All sixteen UM101-pretreated mice survived

From patent US11911393B2, “Non-catalytic substrate-selective p38alpha-specific MAPK inhibitors with endothelial-stabilizing and anti-inflammatory activity, and methods of use thereof” (University of Maryland, Baltimore, priority 2016, dated 2024)
